Data: patent US20220289708A1, “SUBSTITUTED N-PHENYL URACILS, SALTS THEREOF AND THEIR USE AS HERBICIDAL AGENTS” (Bayer Aktiengesellschaft, priority 2019, published 2022)

Assays:
Format in all cases: in vivo
Oryza sativa = assay: Post-emergence crop plant compatibility; conditions: application rate 20 g/ha
How it was run: (§1)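 Greenhouse crop plants in sandy loam sprayed at one-leaf stage (2-3 weeks after sowing) with WP or EC formulations plus 0.5% additive, 600 l/ha water, at 5 g/ha or 20 g/ha. Damage scored visually after about 3 weeks as % versus untreated controls (100% = plants dead).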

Zea mays = assay: Post-emergence crop plant compatibility
How it was run: as §1

Setaria viridis = assay: Post-emergence herbicidal action; conditions: application rate 20 g/ha, rated visually after about 3 weeks vs untreated controls
How it was run: (§2)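 Percent activity, judged by eye about 3 weeks after treatment relative to untreated plants, ranges from 0% (as control) to 100% (plants dead). Foliar application at 20 g/ha and less was made at the one-leaf stage using a 600 l/ha aqueous spray containing 0.5% additive.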

Veronica persica = assay: Post-emergence herbicidal action; conditions: application rate 20 g/ha
How it was run: as §2

Abutilon theophrasti = assay: Post-emergence herbicidal action; conditions: application rate 20 g/ha, rated visually after about 3 weeks vs untreated controls
How it was run: as §2

Polygonum convolvulus = assay: Post-emergence herbicidal action; conditions: application rate 20 g/ha
How it was run: as §2

Pharbitis purpurea = assay: Post-emergence herbicidal action; conditions: application rate 20 g/ha, rated visually after about 3 weeks vs untreated controls
How it was run: as §2

Amaranthus retroflexus = assay: Post-emergence herbicidal action; conditions: application rate 20 g/ha, rated visually after about 3 weeks vs untreated controls
How it was run: as §2

Digitaria sanguinalis = assay: Post-emergence herbicidal action; conditions: application rate 20 g/ha, rated visually after about 3 weeks vs untreated controls
How it was run: as §2

Matricaria inodora = assay: Post-emergence herbicidal action; conditions: application rate 20 g/ha, rated visually after about 3 weeks vs untreated controls
How it was run: as §2

Viola tricolor = assay: Post-emergence herbicidal action; conditions: application rate 20 g/ha
How it was run: as §2

Echinochloa crus-galli = assay: Post-emergence herbicidal action; conditions: application rate 20 g/ha, rated visually after about 3 weeks vs untreated controls
How it was run: as §2

Alopecurus myosuroides = assay: Post-emergence herbicidal action; conditions: application rate 20 g/ha, rated visually after about 3 weeks vs untreated controls
How it was run: as §2

Avena fatua = assay: Post-emergence herbicidal action; conditions: application rate 20 g/ha, rated visually after about 3 weeks vs untreated controls
How it was run: as §2

COCCOCCOC(=O)COc1ncccc1Oc1cc(-n2c(=O)cc(C(F)(F)F)n(C)c2=O)c(F)cc1[N+](=O)[O-] [I.14-23]
10%: Oryza sativa (efficacy in %) (Oryza sativa) | Zea mays (efficacy in %) (Zea mays; application rate 20 g/ha)
100%: Setaria viridis (efficacy in %) (Setaria viridis) | Veronica persica (efficacy in %) (Veronica persica) | Abutilon theophrasti (efficacy in %) (Abutilon theophrasti) | Polygonum convolvulus (efficacy in %) (Polygonum convolvulus) | Pharbitis purpurea (efficacy in %) (Pharbitis purpurea) | Amaranthus retroflexus (efficacy in %) (Amaranthus retroflexus) | Digitaria sanguinalis (efficacy in %) (Digitaria sanguinalis) | Matricaria inodora (efficacy in %) (Matricaria inodora) | Viola tricolor (efficacy in %) (Viola tricolor) | Echinochloa crus-galli (efficacy in %) (Echinochloa crus-galli)

Cn1c(C(F)(F)F)cc(=O)n(-c2cc(Oc3cccnc3OCC(=O)OC3COC3)c([N+](=O)[O-])cc2F)c1=O [I.14-115]
20%: Oryza sativa (efficacy in %) (Oryza sativa) | Zea mays (efficacy in %) (Zea mays; application rate 5 g/ha)
100%: Setaria viridis (efficacy in %) (Setaria viridis) | Veronica persica (efficacy in %) (Veronica persica) | Polygonum convolvulus (efficacy in %) (Polygonum convolvulus) | Pharbitis purpurea (efficacy in %) (Pharbitis purpurea) | Amaranthus retroflexus (efficacy in %) (Amaranthus retroflexus) | Alopecurus myosuroides (efficacy in %) (Alopecurus myosuroides) | Digitaria sanguinalis (efficacy in %) (Digitaria sanguinalis) | Matricaria inodora (efficacy in %) (Matricaria inodora) | Viola tricolor (efficacy in %) (Viola tricolor) | Echinochloa crus-galli (efficacy in %) (Echinochloa crus-galli)
80%: Avena fatua (efficacy in %) (Avena fatua)
